Results taken from patent US20150166646A1, “Methods and Compositions for Treating or Diagnosing Melanoma” (The Wistar Institute of Anatomy and Biology, priority 2012, published 2015).

Key:
macrophages = test: Macrophage growth (WST-1) and cell death; assay type: cell-based, human; conditions: 3 μM, 72 hours
1205Lu melanoma cells = test: Matrigel Transwell invasion assay with 1205Lu-MΦ conditioned medium; assay type: cell-based, human; conditions: anti-CCL2 10 μg/ml
Method: The invasion assay was conducted with 24-well Transwell inserts (8 μm pore size; Corning). For the MCMI-MΦ-induced invasion assay, 4×10^5 1205Lu melanoma cells in 2% FBS RPMI1640 medium were added in the upper chamber precoated with 50 μl Matrigel (1:3 dilution, BD Biosciences). Media from 1205Lu-MΦ were added to the lower chamber, and R10 medium was used as a control. After overnight incubation, cells that had invaded
were fixed and stained with Diff-Quick staining kit (ThermoFisher). The stained cells in 4 randomly chosen fields were counted for each insert (200×). […]
We used a Matrigel Transwell assay and compared invasion of melanoma cells attracted to the supernatant of 1205Lu-MΦ alone or the supernatant with an anti-CCL2 monoclonal antibody and a pan-MMPs inhibitor GM6001 (see FIG. 7; see also FIG. 4(A)-(E) of Reference 11).

1205Lu xenograft = 1205Lu xenograft tumor growth in nude mice; assay type: in vivo
Method: 5×10^5 1205Lu cells were subcutaneously injected to Nude mice (Female, 8 weeks old).
Tumor size was measured by a caliper. Tumor volume was calculated by the formula: Volume width×wide×length/2. The results are shown in the plot of FIG. 12A, plotting tumor volume vs. day.
Tumors from the experiment described immediately above were extracted and weighted after mice were euthanized. Tumor weight in grams was plotted vs. control or an agent defined along the x axis of FIG. 22A.
All studies were conducted under IACUC guidelines. 7 weeks old BALB/c female nude mice (National Cancer Institute) were injected subcutaneously with 1×10^61205Lu cells in 50% Matrigel (BD Biosciences) in both flanks of mice. When xenografts reached volumes of approximately 100 mm^3, mice were randomly grouped to four groups, with 5 animals per group. GW2580 was dissolved in 0.5% hydroxypropylmethylcellulose (Sigma-Aldrich, MO, USA) and 0.1% Tween 80, and was dosed orally at 160 mg/Kg once daily. […] Tumor volumes were measured every three days using a digital caliber and were calculated using the equation V=0.5×L×W^2. Mice tumors were weighted after mice were euthanized.
1205Lu cells were injected s.c into both flanks of nude mice. […] ANOVA was used to compare the differences in tumor volume. Mice were euthanized on day 14, peritoneal cells were harvested for flow cytometric analysis of the percent of F4/80 positive macrophages. Immunohistochemistry analysis of the expression of F4/80, phospho-ERK and Ki67 in tumors was conducted. The results are shown in FIGS. 12A-E. See, also the data in FIGS. 3B and 3C

[1] = tested on: peritoneal F4/80 positive macrophages; test: Flow cytometric analysis of peritoneal macrophages of treated xenograft mice; assay type: in vivo; conditions: day 14
[2] = tested on: 1205Lu xenograft tumor tissues; test: Immunohistochemistry of xenograft tumors (F4/80, phospho-ERK, Ki67); assay type: in vivo, mice; conditions: for Ki67 positive cells in tumor tissues / signaling of phospho-ERK in tumor tissues: compared to control mice; for F4/80 positive macrophages in tumors: day 14
[3] = tested on: 1205Lu and A375 melanoma cells; test: Melanoma cell growth (WST-1) and cell death (Annexin V/7-AAD), cells cultured alone; assay type: cell-based, human
[4] = tested on: melanoma cells co-cultured with macrophages; test: Melanoma/macrophage transwell co-culture: growth (WST-1) and cell death; assay type: cell-based, human; conditions: for macrophage-mediated resistance of melanoma cells to BRAFi (cell growth, anti-cell death effect): co-culture with macrophages in presence of PLX4720, 3 days
1205Lu [5] = test: Western blot of 1205Lu cells treated with PLX4720, GW2580, soluble M-CSFR with or without MCMI-Mφ; assay type: cell-based, human; conditions: 10 μM, 3 days, without MCMI-Mφ
[6] = tested on: MAPK pathway in macrophages; test: Immunoblotting of MAPK signaling in macrophages; assay type: cell-based, human; conditions: 2 hours; accompanied by phosphorylation of CRAF
Method: For macrophages, after monocytes were differentiated to the macrophages, cells in 2% FBS melanoma media were seeded into 15 ml tubes. […] Immunoblotting were performed as described previously. The following antibodies were used: anti-phospho-ERK, ERK, Phospho-VEGFR1, phospho-CRAF, CRAF, PCNA, HSP90 and Rab11.
Cells were harvested for immunoblotting of antibodies to pERK (short expression), pERK, ERK, pCRAF (S338), CRAF, and Rab11 as shown in FIG. 11A. An ELISA assay was performed to determine the activation of RAS in 3 macrophage donors and the melanoma cells A375 and 1205Lu. As see in FIG. 11B, macrophages have high basal level of RAS activation.

1205Lu [7] = test: Western blot for cPARP in 1205Lu cells; assay type: cell-based, human; conditions: PLX4720 1, 3, 10 μM, 2 days, with or without macrophages
[8] = tested on: VEGF production in macrophages; test: Intracellular staining for VEGF production in macrophages; conditions: 4 hours
[9] = tested on: MAPK pathway (pERK) in melanoma cells; test: Immunoblotting of MAPK signaling in melanoma cells; assay type: cell-based, human; conditions: VEGF 10 ng/ml and PLX4720 1 μM, 4 hours
Method: Macrophages and melanoma co-culture system was set up as described above. Melanoma cells were cultured same as Proliferation assay for 6 hours and were harvested for Immmunoblotting with following antibodies: phspho-ERK, total ERK, HSP90, phosphor-AKT, AKT, phosphor-NF-κB, phospho-CRAF, total CRAF, Phospho-ARAF, RAB11, Vinculin.
Cells were harvested for immunoblotting with antibodies to pERK, ERK, HSP90. VEGF increases the activation of MAPK pathway (FIG. 10C).
Relative cell growth and cell death were determined as above.

For CC(C)(C)c1nc(-c2cccc(NS(=O)(=O)c3c(F)cccc3F)c2F)c(-c2ccnc(N)n2)s1 [Dabrafenib], the “macrophage apoptosis / cell death” value (macrophages) was “protects macrophage from cell death”.
With CNC(=O)[C@H](Cc1c[nH]c2ccccc12)NC(=O)[C@@H](CC(=O)NO)CC(C)C [GM6001] the “1205Lu-MΦ supernatant induced melanoma invasion” value (1205Lu melanoma cells; GM6001 10 μM, Matrigel Transwell) was “did not have a significant effect” and the “melanoma cell invasion (FIG. 7)” value (1205Lu melanoma cells; MMPi 5 μM, 18 h, 1205Lu-MΦ CM) was “marginally increased melanoma cell invasion”.
In the case of COc1ccc(COc2ccc(Cc3cnc(N)nc3N)cc2OC)cc1 [GW2580, 5-(3-methoxy-40((4-methoxybenzyl)oxy)benzyl)pyrimidine-2,4-diamine], the “efficacy compared with PLX4720 alone” value (1205Lu xenograft; 14 days, GW2580 160 mg/kg vs PLX4720) is reported as “less efficacious than PLX4720”, the “tumor size / tumor growth” value (1205Lu xenograft; after 14 days of oral treatment, GW2580 160 mg/kg, PLX4720 30 mg/ml as printed) is reported as “significantly decreased tumor size” and the “effect on anti-tumor activity of PLX4720 on 1205Lu xenograft tumor growth (FIG. 12A)” value (1205Lu xenograft; oral, 14 days) is reported as “increases anti-tumor activity of PLX4720”. For the same compound, the “numbers of peritoneal F4/80 positive macrophages” value [1] was “significant decrease”, the “Ki67 positive cells in tumor tissues” value [2] was “fewer” and the “signaling of phospho-ERK in tumor tissues” value [2] was “decreased signaling”. For the same compound, the “F4/80 positive macrophages in tumors” value [2] was “abolished”, the “melanoma growth and death in vitro” value ([3]; GW2580 alone, 72 hours) was “did not have significant effects” and the “macrophage-mediated resistance of melanoma cells to BRAFi (cell growth, anti-cell death effect)” value [4] was “can reverse macrophage-mediated resistance”. The “expression of pERK, pAKT, pS6, pRSK90 (Western blot)” value (1205Lu [5]) was “all blots appear similar to col. 4”.
In the case of COc1cc2nccc(Oc3ccc(NC(=O)NC4CC4)c(Cl)c3)c2cc1C(N)=O [Lenbatinib], the “macrophage-mediated resistance of melanoma cells to BRAFi (cell growth, anti-cell death effect)” value [4] is reported as “reverse macrophage-mediated resistance”.
CCCS(=O)(=O)Nc1ccc(F)c(C(=O)c2c[nH]c3ncc(Cl)cc23)c1F [PLX4720] was tested, and the “numbers of peritoneal F4/80 positive macrophages” value [1] was “amplified this effect”, the “Ki67 positive cells in tumor tissues” value [2] was “fewer” and the “signaling of phospho-ERK in tumor tissues” value [2] was “decreased signaling”. The “F4/80 positive macrophages in tumors” value [2] was “significant decrease”, the “BRAFi-induced growth inhibition and cell death of melanoma cells when co-cultured with macrophages” value ([4]; 0-10 μM, 3 days, 1205Lu, A375, SK-MEL-28, 451Lu) was “significantly protected from PLX4720-induced growth inhibition and cell death” and the “macrophage apoptosis / cell death” value (macrophages) was “protects macrophage from apoptosis”. The “MAPK signaling in macrophages” value [6] was “strongly activated”, the “cPARP gel (Western blot)” value (1205Lu [7]) was “showed a second blot” and the “production of VEGF in macrophages” value [8] was “significantly increased”.
In the case of VEGF, the “rescue of PLX4720-induced cell growth inhibition” value ([3]; VEGF 10 ng/ml with PLX4720, 3 days) is reported as “rescued PLX4720-induced cell growth inhibition” and the “MAPK pathway in melanoma cells” value [9] is reported as “activated the MAPK pathway”.
For m-CSFR: soluble M-CSFR, the “expression of pERK, pAKT, pS6, pRSK90 (Western blot)” value (1205Lu [5]) was “no change from control”.
